Where two headings read alike, the source gives them in different places.
Test: acid dissociation constant (pKa) by conventional titration

Row | pKa | Compound | pKa (acid dissociation constant of hindered amine light stabilizer)
1 | 4.4 | CCCCCCCCON1C(C)(C)CC(OC(=O)CCCCCCCCC(=O)OC2CC(C)(C)N(OCCCCCCCC)C(C)(C)C2)CC1(C)C [Example D-4, Bis(1-octyloxy-2,2,6,6-tetramethylpiperidin-4-yl) sebacate] | –
2 | – | Condensate of N,N-bis(3-aminopropyl)ethylenediamine. 2,4-bis[N-butyl-N-(1,2,2,6,6-pentamethyl-4-pi peridyl)amino]-6-chloro-1,3,5-triazine [Example D-5] | 9.2
3 | 9 | CC1(C)CC(OC(=O)CCCCCCCCC(=O)OC2CC(C)(C)NC(C)(C)C2)CC(C)(C)N1 [Example D-3, Bis(2,2,6,6-tetramethyl-4-piperidyl) sebacate] | –
4 | 8.9 | CN1C(C)(C)CC(OC(=O)CC(C(=O)OC2CC(C)(C)N(C)C(C)(C)C2)C(CC(=O)OC2CC(C)(C)N(C)C(C)(C)C2)C(=O)OC2CC(C)(C)N(C)C(C)(C)C2)CC1(C)C [Example D-2, tetrakis(1,2,2,6,6-pentamethyl-4-piperidyl) 1,2,3,4-butanetetracarboxylate] | –
